Patent publication US6372693B1, “Substituted 2-(3-alkenyl-benzoyl)-cyclohexane-1,3-diones” (BASF Aktiengesellschaft, priority 1997, dated 2002)

Key:
Assay in all cases: greenhouse herbicidal test, post-emergence treatment
Type in all cases: in vivo
Sinapis alba = conditions: 0.5 or 0.25 kg/ha a.s., Sinapis alba (white mustard)
Description: (§1) The culture containers used were plastic flowerpots containing loamy sand with approximately 3.0% of humus as substrate. The seeds of the test plants were sown separately for each species.
(§2) For the purposes of post-emergence treatment, the test plants were grown to a plant height of from 3 to 15 cm, depending on the plant habit, and only then treated with the active ingredients which had been suspended or emulsified in water. To this end, the test plants were either sown directly and grown in the same containers, or they were first grown separately as seedlings and transplanted into the test containers a few days prior to treatment. The rate of application for the post-emergence treatment was 0.5 or 0.25 kg/ha a.s.
(§3) Depending on the species, the plants were kept at from 10-25° C. and 20-35° C., respectively. The test period extended over 2 to 4 weeks. During this time, the plants were tended, and their response to the individual treatments was evaluated.
(§4) Evaluation was carried out using a scale of from 0 to 100. 100 means no emergence of the plants, or complete destruction of at least the aerial parts, and 0 means no damage or normal course of growth.
(§5) The plants used in the greenhouse experiments belonged to the following species: […]

Chenopodium album = conditions: 0.5 or 0.25 kg/ha a.s., Chenopodium album (lambsquarters)
Description: as §1, §2, §3, §4, §5

Polygonum persicaria = conditions: 0.5 or 0.25 kg/ha a.s., Polygonum persicaria (ladysthumb)
Description: as §1, §2, §3, §4, §5

Solanum nigrum = conditions: 0.5 or 0.25 kg/ha a.s., Solanum nigrum (black nightshade)
Description: as §1, §2, §3, §4, §5

Measured: herbicidal action (control of the weed)

CC=Cc1c(Cl)ccc(C(=O)C2C(=O)CCCC2=O)c1Cl [Compound 2.1, 2-[2′,4′-Dichloro-3′-(prop-1″-en-1″-yl)benzoyl]-1,3-cyclo-hexanedione]
very good control: all assays above
